Results taken from PubChem BioAssay (NCI).
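Here, GI50 denotes the concentration required for 50% inhibition of growth. At the TGI there is no net growth.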

Columns and labels:
Test in all cases: growth of human tumour cells (NCI), 384-well format
[1] = tested on: HS 578T breast
[2] = tested on: 786-0 renal
[3] = tested on: BT-549 breast
[4] = tested on: SN12C renal
[5] = tested on: RXF 393 renal
[6] = tested on: NCI-H460 NSCLC
[7] = tested on: KM12 colon
[8] = tested on: IGROV1 ovarian
[9] = tested on: A498 renal
[10] = tested on: HT29 colon
[11] = tested on: ACHN renal
[12] = tested on: M14 melanoma
[13] = tested on: HCC-2998 colon
[14] = tested on: K-562 leukemia
[15] = tested on: NCI/ADR-RES ovarian
[16] = tested on: T-47D breast
[17] = tested on: U251 glioblastoma
[18] = tested on: CAKI-1 renal
[19] = tested on: TK-10 renal
[20] = tested on: A549 NSCLC
[21] = tested on: SK-MEL-28 melanoma
[22] = tested on: UACC-62 melanoma
[23] = tested on: HCT-15 colon
[24] = tested on: MDA-MB-231 breast
[25] = tested on: HL-60(TB) leukemia
[26] = tested on: OVCAR-3 ovarian
[27] = tested on: HOP-92 NSCLC
[28] = tested on: MDA-MB-468 breast
[29] = tested on: OVCAR-5 ovarian
[30] = tested on: EKVX NSCLC
[31] = tested on: SNB-75 CNS
[32] = tested on: RPMI-8226 leukemia
[33] = tested on: DU-145 prostate
[34] = tested on: SNB-19 CNS
[35] = tested on: SF-295 CNS
[36] = tested on: COLO 205 colon
[37] = tested on: LOX IMVI melanoma
[38] = tested on: HCT-116 colon
[39] = tested on: HOP-62 NSCLC
[40] = tested on: PC-3 prostate
[41] = tested on: SW-620 colon
[42] = tested on: NCI-H322M lung
[43] = tested on: NCI-H522 lung
[44] = tested on: OVCAR-8 ovarian
[45] = tested on: MDA-MB-435 melanoma
[46] = tested on: SF-268 CNS
[47] = tested on: SF-539 CNS
[48] = tested on: MALME-3M melanoma
[49] = tested on: UACC-257 melanoma
[50] = tested on: MOLT-4 leukemia
[51] = tested on: SK-OV-3 ovarian
[52] = tested on: SK-MEL-5 melanoma
[53] = tested on: OVCAR-4 ovarian
[54] = tested on: NCI-H23 lung
[55] = tested on: NCI-H226 lung
[56] = tested on: UO-31 renal
[57] = tested on: CCRF-CEM leukemia
[58] = tested on: MCF7 breast

With `Cc1nnn(C)c1-c1cnc2c3ccc(C(C)(C)O)cc3n([C@H](c3ccccc3)C3CCOCC3)c2c1` the GI50 [1] was < 0.01 µM, the TGI [1] was 0.758 µM and the GI50 [2] was 0.015 µM. The TGI [2] was 11.7 µM, the GI50 [3] was < 0.01 µM and the TGI [3] was 0.0727 µM. For the same compound, the GI50 [4] was 1.21 µM, the TGI [4] was 20.6 µM and the GI50 [5] was < 0.01 µM. The TGI [5] was 0.155 µM, the GI50 [6] was 0.354 µM and the TGI [6] was 15.6 µM. The GI50 [7] was < 0.01 µM, the TGI [7] was 10.8 µM and the GI50 [8] was < 0.01 µM. The TGI [8] was 1.36 µM, the GI50 [9] was < 0.01 µM and the TGI [9] was 10.7 µM. The GI50 [10] was < 0.01 µM, the TGI [10] was 15.1 µM and the GI50 [11] was 0.0445 µM. For the same compound, the TGI [11] was 12.2 µM, the GI50 [12] was < 0.01 µM and the TGI [12] was 15.7 µM. For the same compound, the GI50 [13] was < 0.01 µM, the TGI [13] was 0.0497 µM and the GI50 [14] was < 0.01 µM. It also gave a TGI [14] of 13.8 µM, a GI50 [15] of 0.197 µM and a TGI [15] of 8.56 µM. The GI50 [16] was 0.0137 µM, the TGI [16] was 11.1 µM and the GI50 [17] was 0.315 µM. The TGI [17] was 12.7 µM, the GI50 [18] was < 0.01 µM and the TGI [18] was 3.96 µM. The GI50 [19] was < 0.01 µM, the TGI [19] was 0.0908 µM and the GI50 [20] was < 0.01 µM. The TGI [20] was 13 µM, the GI50 [21] was 0.0899 µM and the TGI [21] was 24.2 µM. For the same compound, the GI50 [22] was < 0.01 µM, the TGI [22] was 0.146 µM and the GI50 [23] was 0.0139 µM. For the same compound, the TGI [23] was 1.32 µM, the GI50 [24] was < 0.01 µM and the TGI [24] was 11.8 µM. The GI50 [25] was < 0.01 µM, the GI50 [26] was < 0.01 µM and the TGI [26] was 1.71 µM. The GI50 [27] was 0.0253 µM, the TGI [27] was 14.5 µM and the GI50 [28] was < 0.01 µM. For the same compound, the TGI [28] was 1.22 µM, the GI50 [29] was < 0.01 µM and the TGI [29] was 12.6 µM. The GI50 [30] was 3.19 µM, the TGI [30] was 21.6 µM and the GI50 [31] was 0.299 µM. For the same compound, the TGI [31] was 14 µM, the GI50 [32] was < 0.01 µM and the GI50 [33] was 0.753 µM. The TGI [33] was 22.1 µM, the GI50 [34] was 0.032 µM and the TGI [34] was 20.3 µM. For the same compound, the GI50 [35] was 0.38 µM, the TGI [35] was 17 µM and the GI50 [36] was < 0.01 µM. For the same compound, the TGI [36] was 0.331 µM, the GI50 [37] was < 0.01 µM and the TGI [37] was 0.0113 µM. For the same compound, the GI50 [38] was 0.0242 µM, the TGI [38] was 12.8 µM and the GI50 [39] was < 0.01 µM. For the same compound, the TGI [39] was 2.77 µM, the GI50 [40] was < 0.01 µM and the TGI [40] was 25 µM. The GI50 [41] was 1.74 µM, the TGI [41] was 17.4 µM and the GI50 [42] was 0.019 µM. The TGI [42] was 17.5 µM, the GI50 [43] was < 0.01 µM and the TGI [43] was 0.0106 µM. The GI50 [44] was < 0.01 µM, the TGI [44] was 1.3 µM and the GI50 [45] was 0.0431 µM. The TGI [45] was 61.7 µM, the GI50 [46] was 0.0793 µM and the TGI [46] was 16.8 µM. The GI50 [47] was 0.0103 µM, the TGI [47] was 0.0543 µM and the GI50 [48] was < 0.01 µM. The TGI [48] was 0.268 µM, the GI50 [49] was < 0.01 µM and the TGI [49] was 5.55 µM. The GI50 [50] was < 0.01 µM, the TGI [50] was 0.211 µM and the GI50 [51] was < 0.01 µM. The TGI [51] was 1.45 µM, the GI50 [52] was < 0.01 µM and the TGI [52] was 1.11 µM. The GI50 [53] was < 0.01 µM, the TGI [53] was 0.0212 µM and the GI50 [54] was < 0.01 µM. The TGI [54] was 3.35 µM, the GI50 [55] was < 0.01 µM and the TGI [55] was 10.3 µM. For the same compound, the GI50 [56] was 0.0132 µM, the TGI [56] was 13.4 µM and the GI50 [57] was < 0.01 µM. For the same compound, the TGI [57] was 1.42 µM, the GI50 [58] was < 0.01 µM and the TGI [58] was 0.435 µM.
